{"source": "patent US7655695B2", "about": "“Illudin analogs useful as anticancer agents” (The Regents of The University of California, priority 2005, dated 2010)", "key": {"[1]": {"system": "HT29 colon carcinoma", "assay": "MTS viability assay, 1 hour exposure, HT29", "format": "cell-based", "conditions": "Homo sapiens, HT-29, HT29, 1 hour exposure", "protocol": "(§1) Using four different cell lines, HT29 colon, OVCAR-3 ovarian, AsPC-1 pancreatic, and PC-3 prostate carcinoma, the IC50 values of compound 6 and irofulven were established for one hour incubations using the MTS viability assay (Buttke T. M. et al., J Immunol Methods. 1993, 157, 233)."}, "[2]": {"system": "OVCAR-3 ovarian carcinoma", "assay": "MTS viability assay, 1 hour exposure, OVCAR-3", "format": "cell-based", "conditions": "Homo sapiens, OVCAR-3, 1 hour exposure", "protocol": "as §1"}, "[3]": {"system": "AsPC-1 pancreatic carcinoma", "assay": "MTS viability assay, 1 hour exposure, AsPC-1", "format": "cell-based", "protocol": "as §1"}, "[4]": {"system": "PC-3 prostate carcinoma", "assay": "MTS viability assay, 1 hour exposure, PC-3", "format": "cell-based", "conditions": "PC-3, 1 hour exposure", "protocol": "as §1"}, "[5]": {"system": "subcutaneous MV522 tumors", "assay": "MV522 mouse xenograft model", "format": "in vivo", "conditions": "3/wk for 21 d; for PR (Partial Response): mice with partial response/mice", "protocol": "The MV522 xenograft model was used to test the in vivo activity of compounds 6 and 7 as previously described (Kelner M. J. et al., Invest New Drugs. 1996, 14, 161). Mice bearing subcutaneous MV522 tumors were dosed intraperitoneally three times a week for three weeks (3/wk for 21 d) at 10 mg/kg of irofulven, doses ranging from 7.5 to 10 mg/kg for compound 6, or 5 to 15 mg/kg for compound 7 (FIGS. 1 and 2 and Table 3). Compound 6 had potent anti-tumor activity against MV522 tumors, producing 4/6 and 5/5 partial responses in mice treated with 7.5 and 10 mg/kg doses, respectively.\nThe MV522 xenograft model was used to test the in vivo activity of Compound 6 administration on a weekly schedule. Nude mice bearing subcutaneous MV522 tumors were dosed intraperitoneally (IP) 1/wk for 14 d at 17.5 mg/kg Compound 6 vs 7.5 mg/kg Compound 6 or 10 mg/kg irofulven on the intermittent schedule (3/wk for 21 d). The comparator dosages were the previously-determined efficacious MTDs for the 3/wk for 21 d schedule (FIG. 5)."}, "[6]": {"assay": "Plasma stability in pooled fresh human plasma at 37° C., LC/MS/MS", "format": "in vitro ADME", "text": "Compounds 6 and 7 were compared against irofulven for their respective plasma stability (e.g., the enhanced stability or in vivo terminal phase elimination half life (T½) of a compound in plasma; it is believed that the greater the stability and T½ the more likely it is that the compound will be incorporated into or have an effect on a cancerous cell, such as cells of a tumor or a hematologic cancerous cell). Pooled fresh human plasma was spiked with each analog, and the compound stability profile was measured at 37° C. using LC/MS/MS. […] These properties differentiate Compounds 6 and 7 from irofulven and may have enhanced therapeutic potential. The increased plasma stability of Compound 6 may be particularly advantageous in drug formulation and delivery as it relates to increased exposure of the tumor to the drug. Thus, compound 6 has increased stability in human plasma in vitro (FIG. 3)."}, "[7]": {"assay": "Pharmacokinetics after single intravenous administration in male CD-1 mice", "format": "in vivo, mouse", "conditions": "for clearance: read-out: CLp (converted); for Vd: read-out: Vdss", "protocol": "The pharmacokinetics (PK) of Compound 6 was investigated in the CD-1 male mouse. A single intravenous administration of 5 mg/kg was followed by sequential blood collections and analysis of plasma by LC/MS/MS."}, "[8]": {"assay": "Maximum tolerated dose on the 3/wk for 21 d schedule", "conditions": "nude, mouse, in vivo, IP, read-out: previously-determined efficacious MTD", "protocol": "A novel dosing schedule for acyfulvene analogs is described herein. This dosing schedule requires less frequent administration of individual dosages exceeding the previously-determined maximum tolerated dose (MTD) for each dose on an intermittent schedule of 3/wk for 21 d. For example, compound 6 was tested on a dosing schedule of 1/wk for 14 d. On this schedule, the total cumulative dose was less than the total cumulative dose administered on the 3/wk for 21 d-schedule, but with equal efficacy (FIG. 5). The 3/wk for 21 d dosing schedule is a standard method of administration for irofulven. The 1/wk for […] schedule for Compound 6 disclosed herein was unexpected based on prior work and presents a unique opportunity to administer less total dose of a cytotoxic chemotherapeutic less frequently and thereby reduce the overall toxic effect on the patient. This represents an increase in human safety and compliance, as a weekly dosing schedule is easier to follow than a more frequent dosing schedule.\nThe MV522 xenograft model was used to test the in vivo activity of Compound 6 administration on a weekly schedule. […] The comparator dosages were the previously-determined efficacious MTDs for the 3/wk for 21 d schedule (FIG. 5)."}, "[9]": {"system": "MV522 lung cancer cells", "assay": "Thymidine incorporation into cellular DNA, 2 hour exposure, MV522 tumor cell line", "format": "cell-based", "conditions": "MV522, 2 hour exposure", "text": "The anti-cancer activities of compounds 6, 7, 14, 16, 18, 20, 21 and 22 were compared to that of irofulven, 3, using MV522 lung cancer cells in vitro (See Kelner M. J. et al., Cancer Res. 1987, 47, 3186)."}, "[10]": {"conditions": "Homo sapiens, ASPC1, AsPC-1, 1 hour exposure, read-out: GI50"}, "[11]": {"conditions": "mouse, plasma, 5 mg/kg single IV"}, "[12]": {"conditions": "mouse, plasma, 5 mg/kg IV, concentrations extrapolated from a 12.9 mg/kg IV dose"}}, "note": "Read-outs that look alike come from different tables or passages of the source.", "data": [{"smiles": "CC1=C(CN(O)C(N)=O)C2=C(C)C3(CC3)[C@@](C)(O)C(=O)C2=C1", "note": "[Compound 6, N-hydroxy-N-(methylacylfulvene)urea]", "values": [{"measurement": "GI50", "setting": "[1]", "value": 0.68, "unit": "µg/mL"}, {"measurement": "GI50", "setting": "[2]", "value": 0.6, "unit": "µg/mL"}, {"measurement": "GI50", "setting": "[3]; AsPC-1, 1 hour exposure", "value": "greater potency"}, {"measurement": "GI50", "setting": "[3]; [10]", "value": 16, "unit": "µg/mL"}, {"measurement": "GI50", "setting": "[4]", "value": 0.41, "unit": "µg/mL"}, {"measurement": "% Tumor Growth Inhibition", "setting": "[5]; 7.5 mg/kg i.p.", "value": 100, "unit": "%"}, {"measurement": "Relative Mean Tumor Weight (Wt/Wi)", "setting": "[5]; 7.5 mg/kg i.p.", "value": 0.9}, {"measurement": "PR (Partial Response)", "setting": "[5]; 7.5 mg/kg i.p.", "value": "4/6"}, {"measurement": "% Tumor Growth Inhibition", "setting": "[5]; 10 mg/kg i.p.", "value": 100, "unit": "%"}, {"measurement": "Relative Mean Tumor Weight (Wt/Wi)", "setting": "[5]; 10 mg/kg i.p.", "value": 0.3}, {"measurement": "PR (Partial Response)", "setting": "[5]; 10 mg/kg i.p.", "value": "5/5"}, {"measurement": "stability in human plasma compared with irofulven", "setting": "[6]", "value": "more stable"}, {"measurement": "AUC(0-t)", "setting": "[7]; 5 mg/kg single IV", "value": "greater"}, {"measurement": "CLp", "setting": "[7]; 5 mg/kg single IV", "value": "reduced"}, {"measurement": "Cmax", "setting": "[7]; 5 mg/kg single IV", "value": "greater"}, {"measurement": "T1/2", "setting": "[7]; 5 mg/kg single IV", "value": "significantly longer"}, {"measurement": "Vdss", "setting": "[7]; 5 mg/kg single IV", "value": "reduced"}, {"measurement": "AUC(0-inf)", "setting": "[7]; [11]", "value": 2200, "unit": "ng·h/mL"}, {"measurement": "half-life", "setting": "[7]; [11]", "value": 2.36, "unit": "h"}, {"measurement": "AUC(0-t)", "setting": "[7]; mouse, plasma, 5 mg/kg single IV, read-out: AUC (0-t)", "value": 2200, "unit": "ng·h/mL"}, {"measurement": "clearance", "setting": "[7]; [11]", "value": 37.8, "unit": "mL/min/kg"}, {"measurement": "Cmax", "setting": "[7]; mouse, plasma, 5 mg/kg single IV, read-out: Cmax", "value": 9730, "unit": "ng/mL"}, {"measurement": "Vd", "setting": "[7]; [11]", "value": 0.548, "unit": "L/kg"}, {"measurement": "MTD at 21 d", "setting": "[8]", "value": 7.5, "unit": "mg/kg"}]}, {"smiles": "CC(=O)ON(CC1=C(C)C=C2C(=O)[C@](C)(O)C3(CC3)C(C)=C21)C(N)=O", "note": "[Compound 7, N-Acetoxy-N-(methylacylfulvene)urea]", "values": [{"measurement": "% Tumor Growth Inhibition", "setting": "[5]; 5 mg/kg i.p.", "value": 56, "unit": "%"}, {"measurement": "Relative Mean Tumor Weight (Wt/Wi)", "setting": "[5]; 5 mg/kg i.p.", "value": 4.5}, {"measurement": "% Tumor Growth Inhibition", "setting": "[5]; 5 mg/kg i.p., listed as compound 7", "value": 56, "unit": "%"}, {"measurement": "% Tumor Growth Inhibition", "setting": "[5]; 10 mg/kg i.p.", "value": 79, "unit": "%"}, {"measurement": "Relative Mean Tumor Weight (Wt/Wi)", "setting": "[5]; 10 mg/kg i.p.", "value": 2.2}, {"measurement": "% Tumor Growth Inhibition", "setting": "[5]; 10 mg/kg i.p., listed as compound 7", "value": 79, "unit": "%"}, {"measurement": "% Tumor Growth Inhibition", "setting": "[5]; 15 mg/kg i.p.", "value": 100, "unit": "%"}, {"measurement": "Relative Mean Tumor Weight (Wt/Wi)", "setting": "[5]; 15 mg/kg i.p.", "value": 0.7}, {"measurement": "PR (Partial Response)", "setting": "[5]; 15 mg/kg i.p.", "value": "4/6"}, {"measurement": "stability in human plasma compared with irofulven", "setting": "[6]", "value": "less stable"}]}, {"smiles": "CC1=C(CO)C2=C(C)C3(CC3)[C@@](C)(O)C(=O)C2=C1", "note": "[Irofulven, 6-hydroxymethylacylfulvene, reference compound]", "values": [{"measurement": "IC50", "setting": "[9]", "value": "1200 ± 100", "unit": "nM"}, {"measurement": "GI50", "setting": "[1]", "value": 1.4, "unit": "µg/mL"}, {"measurement": "GI50", "setting": "[2]", "value": 0.15, "unit": "µg/mL"}, {"measurement": "GI50", "setting": "[3]; [10]", "value": "> 100", "unit": "µg/mL"}, {"measurement": "GI50", "setting": "[4]", "value": 0.58, "unit": "µg/mL"}, {"measurement": "% Tumor Growth Inhibition", "setting": "[5]; 10 mg/kg i.p.", "value": 100, "unit": "%"}, {"measurement": "Relative Mean Tumor Weight (Wt/Wi)", "setting": "[5]; 10 mg/kg i.p.", "value": 0.8}, {"measurement": "PR (Partial Response)", "setting": "[5]; 10 mg/kg i.p.", "value": "6/7"}, {"measurement": "AUC(0-inf)", "setting": "[7]; [12]", "value": 695, "unit": "ng·h/mL"}, {"measurement": "half-life", "setting": "[7]; [12]", "value": 0.0988, "unit": "h"}, {"measurement": "AUC(0-t)", "setting": "[7]; mouse, plasma, 5 mg/kg IV, concentrations extrapolated from a 12.9 mg/kg IV dose, read-out: AUC (0-t)", "value": 691, "unit": "ng·h/mL"}, {"measurement": "clearance", "setting": "[7]; [12]", "value": 120, "unit": "mL/min/kg"}, {"measurement": "Cmax", "setting": "[7]; mouse, plasma, 5 mg/kg IV, concentrations extrapolated from a 12.9 mg/kg IV dose, read-out: Cmax", "value": 5650, "unit": "ng/mL"}, {"measurement": "Vd", "setting": "[7]; [12]", "value": 0.948, "unit": "L/kg"}, {"measurement": "MTD at 21 d", "setting": "[8]", "value": 10, "unit": "mg/kg"}]}]}
